Assay results as given in patent US20260315564A1, “THE USE OF TP3 (THYMOPENTIN ANALOG) BY INCREASING THE ACTIVITY AND NUMBER OF T-CELLS INVOLVED IN THE DEFENSE MECHANISM OF THE IMMUNE SYSTEM OF MAMMALS, FOR THE PREVENTION OR TREATMENT OF DISEASES TO EXTEND THE AVERAGE LIFESPAN” (priority 2023, published 2026).
Marks after values point to notes of the source that are not given here.

System: peritoneal macrophages
Assay: Phagocytic function of peritoneal macrophages ex vivo in CFLP outbred mice (CY-immunosuppressed)
From the text: 6.2./Examination of the Effect on the Phagocytic Function of Peritoneal Macrophages CFLP Outbred in Mice
Macrophage phagocytosis ex vivo (X=yeast/100 cells)

With `O=P1(N(CCCl)CCCl)NCCCO1` (centres unmarked) [CY] as the molecule, how does the “phagocytic activity of macrophages” value (CY immunosuppression, 1.0 mg/kg/sc (TP3), in words) read?
The value was “significantly inhibited”.

And the “macrophage phagocytosis ex vivo” value (CY p.o. alone, n = 15, untreated control 194.5)?
The value was 111.5* yeast/100 cells.
